Data on 72 compounds can be found in the supplement of paper PMC3974653.

This experiment concerns MTT (mouse pheochromocytoma). The experiment is described as follows: IC50 of cell viability (ATP content). The following applies: (24 or 48 h). The gist of the method:
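Cells of the MTT mouse pheochromocytoma line, 5 µl per well at 200,000 cells/ml, were grown overnight at 37°C, 5% CO2 in white 1536-well plates with DMEM, 5% FBS and 1% horse serum. Pintool transfer then delivered 23 nl of library compound in DMSO, giving 8 final concentrations from 0.5 nM to 46 µM, for an exposure of 24 or 48 hrs. Luminescence from CellTiter-Glo was read after 15 minutes and referenced to positive-control wells (100%) and DMSO wells (0%). IC50 was calculated with a four-parameter logistic fit.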

Molecules are shown by their SMILES. Structures can show the parent of a compound that is named as a salt.

In the case of `CC12NC(Cc3ccccc31)c1ccccc12.O=C(O)/C=C/C(=O)O` (single isomer, unassigned; (-)) [(-)-MK-801 hydrogen maleate], the “IC50 of cell viability” value was above 46 µM. As for `CC1[C@H]2Cc3ccc(O)cc3[C@]1(C)CCN2C` (single isomer, unassigned; (-)) [(-)-Metazocine], the “IC50 of cell viability” value was above 46 µM.

On to `COc1ccc2c3c1O[C@H]1[C@@H](O)C=C[C@H]4C(C2)NCCC341` (single isomer, unassigned; (-)) [(-)-NORCODEINE], for which the “IC50 of cell viability” value is above 46 µM.

Turning to `CC(C)=CCN1CC[C@@]2(C)c3cc(O)ccc3C[C@@H]1C2C` (single isomer, unassigned; (-)) [(-)-Pentazocine], the “IC50 of cell viability” value is above 46 µM.

`CC1[C@H]2Cc3ccc(O)cc3[C@]1(C)CCN2CCc1ccccc1` (single isomer, unassigned; (-)) [(-)-Phenazocine]: the “IC50 of cell viability” value was above 46 µM. To `O=C(NC1N=C(c2ccccc2F)c2cccc3c2N(CC3)C1=O)c1cc2ccccc2[nH]1` (stereo in doubt) belongs above 46 µM.

As to `CCN(CC)CCO[C@H]1CC[C@@]2(C)C(=CC[C@@H]3C2CC[C@]2(C)C(=O)CCC32)C1` (stereo in doubt) [3b-(2-Diethylaminoethoxy)androst-5-en-17-one, HCl], the “IC50 of cell viability” value was above 46 µM.

As to `COc1ccc2cc(C(C)C(=O)[O-])ccc2c1.[Na+]` (stereo in doubt) [(R) -Naproxen sodium salt], the “IC50 of cell viability” value was above 46 µM. Under `CNC1(c2ccccc2Cl)CCCCC1=O` (stereo in doubt) [(R)-(+)-Ketamine] stands above 46 µM; under `CNC1(c2ccccc2Cl)CCCCC1=O` (stereo in doubt) [(S)-(-)-Ketamine], above 46 µM.

Take `CC(=O)NC(CC(C)C)C(=O)O` (stereo in doubt) [ACETYL-L-LEUCINE]: the “IC50 of cell viability” value is above 46 µM.

Turning to `O=C(O)C(O)[C@@H](O)[C@H](O)C(=O)CO` (stereo in doubt) [D-XYLO-5-HEXULOSONIC ACID, CALCIUM SALT], the “IC50 of cell viability” value was above 46 µM. To `NC(COP(=O)(O)O)C(=O)O` (stereo in doubt) [O-PHOSPHO-L-SERINE] belongs above 46 µM. With `CC(C)=CCCC(C)=CCCC(C)=CCC/C=C(\C)CC/C=C(\C)CCC=C(C)C` (stereo in doubt) [Squalene], the “IC50 of cell viability” value is above 46 µM. On to `Clc1ccccc1Cl` [1,2-Dichlorobenzene], for which the “IC50 of cell viability” value was above 46 µM. Regarding `ClCC1CO1` (configuration not stated) [1,2-Epoxy-3-chloropropane (Epichlorohydrin)], the “IC50 of cell viability” value was above 46 µM. For `Nc1ccccc1N` [1,2-Phenylenediamine], the “IC50 of cell viability” value was above 46 µM. With `CC(O)CO` (configuration not stated) [1,2-Propylene glycol], the “IC50 of cell viability” value is above 46 µM.

As to `COc1cc(OC)cc(OC)c1` [1,3,5-TRIMETHOXYBENZENE], the “IC50 of cell viability” value is above 46 µM.

`N=C1NC(=N)c2cc3ccccc3cc21` [1,3-Diiminobenz[f]isoindoline]: the “IC50 of cell viability” value is above 46 µM. As to `O=[N+]([O-])c1cc([N+](=O)[O-])c2ccccc2c1` [1,3-Dinitronaphthalene], the “IC50 of cell viability” value was above 46 µM.

`N=C(Nc1ccccc1)Nc1ccccc1` [1,3-Diphenylguanidine]: the “IC50 of cell viability” value is above 46 µM.

Turning to `O=[S+]([O-])(O)CCC[S+](=O)([O-])O.[NaH]` [1,3-PROPANEDISULFONIC ACID, DISODIUM SALT], the “IC50 of cell viability” value was above 46 µM. Under `Nc1cccc2c(N)cccc12` [1,5-Diaminonaphthalene] stands above 46 µM; under `CCCC(=O)c1cc(O)c(O)cc1O` [1-(2,4,5-trihydroxyphenyl)-1-butanone], above 46 µM; under `C/C=C(\CC)C(=O)NC(N)=O` [1-(2-ETHYLCROTONOYL)UREA], above 46 µM.

Take `COc1ccccc1N1CCNCC1.Cl` [1-(2-Methoxyphenyl)piperazine hydrochloride]: the “IC50 of cell viability” value was above 46 µM. In the case of `CC(=O)OC1(c2ccccc2)CCN(CCc2ccccc2)CC1` [1-(2-Phenylethyl)-4-phenyl-4-acetoxypiperidine], the “IC50 of cell viability” value is above 46 µM. For the compound `Clc1cccc(N2CCNCC2)c1` [1-(3-CHLOROPHENYL)PIPERAZINE], the “IC50 of cell viability” value is above 46 µM. As for `c1ccc(CN2CCNCC2)cc1` [1-Benzylpiperazine], the “IC50 of cell viability” value was above 46 µM. In the case of `O=[N+]([O-])c1ccc(F)c([N+](=O)[O-])c1` [1-Fluoro-2,4-dinitrobenzene], the “IC50 of cell viability” value was above 46 µM.

As to `CCC(=O)OC1(c2ccccc2)CCN(C)CC1` [1-Methyl-4-phenyl-4-propionoxypiperidine], the “IC50 of cell viability” value is above 46 µM. In the case of `O=C(O)Cc1cccc2ccccc12` [1-Naphthalene acetic acid], the “IC50 of cell viability” value was above 46 µM. Under `O=C(O)Cc1cccc2ccccc12` [1-Naphthaleneacetic acid] stands above 46 µM. For `N#CC1(N2CCCCC2)CCCCC1` [1-PIPERIDINOCYCLOHEXANECARBONITRILE], the “IC50 of cell viability” value was above 46 µM.

Take `CC1=NN(c2ccccc2)C(=O)C1` [1-Phenyl-3-methyl-5-pyrazolone]: the “IC50 of cell viability” value was above 46 µM.

Regarding `NC1(c2ccccc2)CCCCC1` [1-Phenylcyclohexyl], the “IC50 of cell viability” value is above 46 µM.

Consider `Nc1ncnc2c1ncn2[C@H]1CC[C@@H](CO)O1` [2',3'-DIDEOXYADENOSINE], for which the “IC50 of cell viability” value is above 46 µM. Consider `NC/1=N/C(=O)N(/C=C1)[C@H]2CC[C@@H](CO)O2` [2',3'-Dideoxycytidine], for which the “IC50 of cell viability” value is above 46 µM. To `O=[N+]([O-])c1c(Cl)c(Cl)cc(Cl)c1Cl` [2,3,5,6-Tetrachloronitrobenzene] belongs above 46 µM. For the compound `c1ccc2occc2c1` [2,3-Benzofuran], the “IC50 of cell viability” value was above 46 µM. As for `O.O=S(=O)([O-])CC(S)CS.[Na+]` (configuration not stated) [2,3-DIMERCAPTOPROPANE-1-SULFONATE SODIUM], the “IC50 of cell viability” value was above 46 µM. `CCCCCCCCCCCCCCCC(=O)OC[C@@H](COP(=O)([O-])OCC[N+](C)(C)C)OC(=O)CCCCCCCCCCCCCCC` [2,3-Dipalmitoyl-sn-glycero-1-phosphocholine]: the “IC50 of cell viability” value was above 46 µM. For the compound `Oc1cc(Cl)c(Cl)cc1Cl` [2,4,5-Trichlorophenol], the “IC50 of cell viability” value was above 46 µM.

Regarding `COc1cc(OC)c(OC)cc1C=O` [2,4,5-Trimethoxybenzaldehyde], the “IC50 of cell viability” value is above 46 µM. `Oc1c(Br)cc(Br)cc1Br` [2,4,6-Tribromophenol]: the “IC50 of cell viability” value was above 46 µM. Regarding `Nc1cc(O)nc(N)n1` [2,4-Diamino-6-hydroxypyrimidine], the “IC50 of cell viability” value is above 46 µM. Under `CCN(CC)N(O)N=O.CCNCC` [2-(N,N-DIETHYLAMINO)DIAZENOLATE-2-OXIDE DIETHYLAMONIUM SALT] stands above 46 µM; under `Nc1ncnc(Nc2ccc(Cl)cc2)n1` [2-AMINO-4-(4-CHLOROANILINO)-1,3,5-TRIAZINE], above 46 µM; under `N=C(N)NN.O=[S+]([O-])(O)O` [2-AMINOGUANIDINE HEMISULFATE], above 46 µM. Under `Nc1ccc([N+](=O)[O-])cc1O` [2-Amino-5-nitrophenol] stands above 46 µM; under `Nc1nc2ccc([N+](=O)[O-])cc2s1` [2-Amino-6-nitrobenzothiazole], above 46 µM. In the case of `Brc1ccccc1-c1ccccc1` [2-Bromobiphenyl], the “IC50 of cell viability” value is above 46 µM. For `CCCC(O)C(CC)CO` (configuration not stated) [2-ETHYL-1,3-HEXANEDIOL], the “IC50 of cell viability” value was above 46 µM.

Consider `CCOc1ccccc1C(N)=O` [2-Ethoxybenzamide (Ethenzamide)], for which the “IC50 of cell viability” value was above 46 µM. Regarding `CCOCCOC(C)=O` [2-Ethoxyethyl acetate], the “IC50 of cell viability” value is above 46 µM. In the case of `O=C(OCCO)c1ccccc1O` [2-Hydroxyethyl salicylate], the “IC50 of cell viability” value was above 46 µM. To `Sc1nc2ccccc2s1` [2-Mercaptobenzothiazole] belongs above 46 µM; to `COc1ccccc1O` [2-Methoxyphenol], above 46 µM. With `Cc1ncc[nH]1` [2-Methylimidazole], the “IC50 of cell viability” value is above 46 µM. Consider `Nc1ccc(N)c([N+](=O)[O-])c1` [2-Nitro-1,4-phenylenediamine], for which the “IC50 of cell viability” value is above 46 µM.

For `O=C(O)CCC(=O)C(=O)O` [2-Oxopentanedioic acid], the “IC50 of cell viability” value was above 46 µM. On to `OCCOc1ccccc1` [2-Phenoxyethanol], for which the “IC50 of cell viability” value was above 46 µM. Consider `O=C(O)c1cc(-c2ccccc2)nc2ccccc12` [2-Phenyl-4-quinolinecarboxylic acid], for which the “IC50 of cell viability” value was above 46 µM.

Turning to `OCCc1ccccc1` [2-Phenylethanol], the “IC50 of cell viability” value was above 46 µM. In the case of `O.O.O.O.[Na+].[O-]c1ccccc1-c1ccccc1` [2-Phenylphenol sodium salt tetrahydrate technical], the “IC50 of cell viability” value is above 46 µM. As for `CC(O)COc1ccccc1` (configuration not stated) [2-Propanol, 1-phenoxy-], the “IC50 of cell viability” value was above 46 µM. `CC(C)O` [2-Propanol]: the “IC50 of cell viability” value is above 46 µM. Consider `Oc1ccnc(S)n1` [2-THIOURACIL], for which the “IC50 of cell viability” value is above 46 µM. For the compound `CC1CC(O)CC(C)(C)C1` (configuration not stated) [3,3,5-TRIMETHYLCYCLOHEXANOL], the “IC50 of cell viability” value is above 46 µM. Consider `Nc1ccncc1N` [3,4-DIAMINOPYRIDINE PHOSPHATE], for which the “IC50 of cell viability” value was above 46 µM.

Turning to `N[C@@H](Cc1cc(I)c(O)c(I)c1)C(=O)O` [3,5-DIIODO-L-TYROSINE], the “IC50 of cell viability” value is above 46 µM.
